# According to paper PMC8773213, “In Vitro Anticancer Activity and Mechanism of Action of an Aziridinyl Galactopyranoside” (Biomedicines, 2021):
# What was measured:
# [1] = system: MRC-5 lung normal cells; assay: MTT cytotoxicity of combinations, MRC-5; type: cell-based; details: 48 h
# Protocol: (§1) Exponentially growing cells were seeded in 96-well plates and allowed to attach and grow for 24 h. The cells were then treated with increasing concentrations of the tested drugs. At the end of the treatment period, cell viability was measured with the MTT assay or the resazurin assay, two widely used techniques.
# (§2) In the case of the MTT assay, this technique detects viable cells using the ability of these cells to reduce the yellow tetrazolium MTT to an insoluble colored formazan product. Subsequently, this product was solubilized and analyzed by spectrophotometry. Dead cells cannot reduce the MTT into the colored formazan product. Briefly, 24 h after plating, cells were treated with the tested compounds for 48 h; except in experiments with DNA repair-proficient and -deficient cell lines, in which cells were only exposed for 24 h to drugs and allowed to grow for an additional 48 h in drug-free medium to allow them to repair possible DNA damage induced by the tested drugs. […] Finally, plates were incubated overnight at 37 °C and optical densities were measured at 540 nm using an absorbance spectrophotometer microplate reader.
# (§3) In both assays, cell viability was expressed as percentage compared to untreated cells. Results were expressed as the means ± standard error of the mean (SEM). […]
# [2] = system: A549 human lung cancer cell line and MRC-5 human lung normal cell line; set-up: method as in PMID 24177365; details: MTT assay; cited from earlier work
# [3] = system: A549 cells; type: cell-based; details: A549, 48 h, antioxidant added 1 h before; MTT
# Protocol: as §1
# In the case of the MTT assay, this technique detects viable cells using the ability of these cells to reduce the yellow tetrazolium MTT to an insoluble colored formazan product. Subsequently, this product was solubilized and analyzed by spectrophotometry. Dead cells cannot reduce the MTT into the colored formazan product. Briefly, 24 h after plating, cells were treated with the tested compounds for 48 h; except in experiments with DNA repair-proficient and -deficient cell lines, in which cells were only exposed for 24 h to drugs and allowed to grow for an additional 48 h in drug-free medium to allow them to repair possible DNA damage induced by the tested drugs. After the treatment period, the medium was removed, the cells were washed once with PBS and 125 μL MTT (1 mg/mL in medium) was added to each well. Plates were incubated for 2–4 h and then 80 μL 20% SDS in 0.02 M HCl was added to each well. Finally, plates were incubated overnight at 37 °C and optical densities were measured at 540 nm using an absorbance spectrophotometer microplate reader.
# (§4) In both assays, cell viability was expressed as percentage compared to untreated cells. Results were expressed as the means ± standard error of the mean (SEM). All data are from at least three independent experiments.
# [4] = system: HepG2 (Human hepatocellular carcinoma cells); assay: Resazurin cell viability assay, HepG2; type: cell-based; details: 72 h, read-out: IC50 (Mean ± SEM, µM), HepG2
# Protocol: as §1
# (§5) The resazurin assay is a redox-based colorimetric/fluorometric technique based on the ability of viable cells to reduce the blue compound resazurin into the pink, fluorescent and soluble product resorufin. The amount of resorufin produced is generally proportional to the number of living cells. In this assay, 24 h after seeding, cells were exposed to the tested drugs for 72 h. Then 100 μL resazurin in medium was added to each well (final concentration of 10 μg/mL) and, one hour later the fluorescence intensity was measured at 530/590 nm (excitation/emission) using a fluorescence microplate reader.
# as §4
# [5] = system: AA8 cells; assay: Comet assay (DNA damage); type: cell-based, Chinese hamster; details: 4 h
# Text: The single cell gel electrophoresis assay, also known as comet assay, is a widely used technique for the study of levels of damage in cellular DNA. In this assay, individual cells embedded in agarose are lysed, electrophoresed, stained with a fluorescent dye and examined under an epifluorescence microscope. […] The quantity of DNA present in the tail is indicative of DNA damage. This assay has been described in detail by Singh et al.. We followed this protocol with minor modifications previously described. Briefly, standard slides were immersed in 1% normal melting agarose at 55 °C, left to allow the agarose to solidify and kept at 4 °C until use. Cells were seeded in 6-well plates, allowed to grow for 24 h and then cells were exposed to AzGalp or CTP (positive control) for 4 h. At the end of the treatment, cells were harvested by trypsinization, washed with PBS and resuspended in PBS at a concentration of approximately 1 million cells/mL; 10 µL cell suspension was mixed with 85 μL of low-melting agarose (LMA) at 37 °C and the mixture was quickly added to the slides with the first layer of agarose, spread using a coverslip and kept at 4 °C for 8 min to allow the LMA to solidify. The coverslips were then removed and another layer of 100 μL of LMA at 37 °C was added, covered with a coverslip and allowed to solidify at 4 °C for 8 min. After removing the coverslips, the slides were incubated in the dark for 1 h at 4 °C in a lysis buffer (pH 10.0) containing 0.25 M NaOH, 10% DMSO, 1% Triton X-100, 10 mM Tris-HCl, 100 mM Na2-EDTA and 2.5 M NaCl. Next, alkaline denaturation with electrophoretic buffer (300 mM NaOH and 1 mM Na2-EDTA) was carried out in an electrophoresis chamber for 20 min and then electrophoresis was performed at 1 V/cm for 20 min. […] DNA damage levels were quantified for each cell and expressed as percent of DNA in the tail and as the tail moment (defined as the product of the tail length and the fraction of total DNA in the tail). The results were averaged from two independent experiments and expressed as mean ± SEM.
# [6] = system: SW480 (Human colon adenocarcinoma cells); assay: Resazurin cell viability assay, SW480; type: cell-based; details: 72 h, read-out: IC50 (Mean ± SEM, µM), SW480
# Protocol: as §1, §5, §4
# [7] = system: VH10 (Human skin non-malignant cells); assay: Resazurin cell viability assay, VH10; type: cell-based; details: 72 h, read-out: IC50 (Mean ± SEM, µM), VH10
# Protocol: as §1, §5, §4
# [8] = system: UV5 cells (mutated in ERCC2 (XPD), NER deficient); assay: MTT cell viability assay, UV5 cells; type: cell-based, Chinese hamster; details: Cricetulus griseus, 24 h exposure, then 48 h in drug-free medium, read-out: IC50 (means ± SEM), UV5 cells
# Protocol: as §1, §2, §3
compound,measurement,setting,value
"Cc1ccc(S(=O)(=O)N2CC2(C)CO[C@@H]2O[C@@H]3CO[C@H](c4ccccc4)O[C@@H]3[C@H](OCc3ccccc3)[C@H]2OCc2ccccc2)cc1 (stereo partly drawn) [AzGalp, 2-methyl-2,3-[N-(4-methylbenzenesulfonyl)imino]propyl 2,3-di-O-benzyl-4,6-O-(S)-benzylidene-β-D-galactopyranoside]","Cytotoxicity of combination with 5-FU, normal cells",[1]; 100 μM AzGalp + 10 μM 5-FU,did not increase cytotoxicity against normal cells
same,"Cytotoxicity of combination with oxaliplatin, normal cells",[1]; 100 μM AzGalp + 10 μM oxaliplatin,did not increase cytotoxicity against normal cells
same,Cytotoxicity against A549 lung cancer cells relative to MRC-5 lung normal cells,[2],approximately six times more cytotoxic
same,Effect of MnTMPyP on cytotoxicity,[3],Neither MnTMPyP nor catalase prevented the cytotoxicity
same,Effect of NAC on cytotoxicity,[3],"slightly prevented cytotoxic activity, it was not statistically significant"
same,Effect of catalase on cytotoxicity,[3],Neither MnTMPyP nor catalase prevented the cytotoxicity
same,IC50,[4],122 ± 12.4 µM
same,Level of DNA damage in comet assay,[5]; 50 µM AzGalp versus 10 µM CPT,lower than that of the DNA-damaging agent CPT
same,Cells with higher levels of DNA damage than untreated cells,[5]; 50 µM,approximately 30%
same,IC50,[6],388 ± 30.9 µM
same,IC50,[7],411 ± 39.4 µM
same,IC50,[8],38.6 ± 6.3 µM
